What was measured:
[1] = test system: human LECs-CCCs freshly removed from cataract operation; test: In situ treatment of LECs attached to capsulorhexis lens capsule (LECs-CCC); type: cell-based
Experimental: The in situ effects of a treatment solution comprising dihydrochlorothiazide (DHCT) (a cotransport interference agent from the group of the thiazide and related diuretics) and hyperosmotic NaCl on human LECs is examined. The treatment is tested on LECs that are still attached to a continuous curvilinear capsulorhexis lens capsule (LECs-CCC) which are freshly removed from a human cataract operation.
The LECs-CCCs are obtained from a cataract operation and immediately put in freshly prepared Eagle's Minimum Essential Medium (MEM) supplemented with 2 mM glutamine, 25 mmol/L Hepes (pH 7.4) without foetal cow serum (FCS) and is transferred to the laboratory for evaluation. Viable LECs are identified by staining the LECs-CCCs for five minutes with 0.2% Trypan Blue. The sheets containing more than 70% viable LECs are used to assess the efficacy of the treatment. […]
In the first step, a hyperosmotic solution of NaCl is prepared by making a stock solution of 2 M NaCl by adding 58.44 g NaCl (supplied by Sigma Chemical Co., U.S.) to 500 ml dH2O. The desired concentration of osmotic NaCl is prepared by diluting the 2M stock solution with dH2O. For example, to make a hyperosmotic solution of 170 mM NaCl, the 2M NaCl stock solution was diluted with dH2O at a ratio of […]. To make a hyperosmotic solution of 200 mM NaCl, the 2M NaCl stock solution is diluted with dH2O at a ratio of 1 to 9. Final osmolarities (mOsm/kg/H2O) are determined by a freezing point depression method using cryoscopic osmometry.
In the second step, DHCT stock solution is made by adding 25 mg DHCT to 1 ml dH2O. […]
The treatment is applied by exposing the LECs-CCCs for five minutes in a small petri dish containing the treatment solution. The treatment solution is removed after five minutes exposure by a syringe and then the fresh PBS is added in the petri dish to wash away the treatment solution. The LECs-CCCs are washed three times. The changes of the LECS are monitored under a microscope. Microscope photographs are taken at 0, 2 and 5 minutes and after wash.

[2] = test system: in vivo rabbit eyes; test: In vivo prevention of PCO after cataract operation in rabbit eyes; conditions: DHCT and hyperosmotic NaCl
Experimental: The experimental group includes sixteen rabbit eyes and the control group includes four rabbit eyes. A sham cataract operation is performed on the control animals. The therapy is introduced to the others.
The pupil of each rabbit eye is preoperatively dilated with topical G Phenylephrine 10% (Alcon Labs., Inc., China) and G Cyclopentolate 1% (Bausch & Lomb Pharm., Inc., USA) three times in one hour. The rabbits are anesthetized with ketamine hydrochloride (5 mg kg-1) and xylazine hydrochloride (2 mg kg-1) and placed on an operating table. A topical anesthetic (Dieaine hydrochloride 1%) is used every five minutes on two occasions. A wire lid speculum is placed to hold the eyelids open.
A 3.2 mm scleral tunnel incision into the eye is formed at the temporal limbus. The anterior chamber is maintained with viscoelastic substances and a 4-5 mm diameter continuous curvilinear capsularhexis (CCC) is made on the anterior surface of the lens to open its bag. The treatment solution is first introduced in the LECs by hydrodissection. This ensures that the treatment fluid immediately reaches under the entire anterior capsule/LECs. This process allows for (i) separation of the lens cortex from the capsule and lens epithelium, making removal of the lens cortex easier at a later stage of the operation and (ii) the LECs to be exposed to the treatment for enough time (more than five minutes in total time).
The crystalline lens is then removed using phacoemulsification (Universal II, Alcon Labs., Inc., China). The remaining cortex is aspirated thoroughly and removed as completely as possible to expose the LECs. The lens capsular bag is then partially filed with viscoelastic material in order to maintain its shape. The viscoelastic material should not cover the LECs when the treatment solution is applied.
The treatment is spread over the inner surface of the anterior capsular bag (where the LECs attach). The anterior capsular is continuously filled by using a syringe with a bent needle. Care is taken not to over flow the bag. After the treatment solution covered the capsule bag, it is left for five minutes and then removed using a syringe.
In a few cases, IOLs are inserted. […] At the same time, the incision is enlarged to 6.0 mm and a posterior ocular lens (IOLs) (poly-methyl methacrylate, PMMA) with a 6.5 mm optic is prepared and placed into the capsular bag.
The wound is closed with or without suture.
At the completion of the surgical procedure, each rabbit eye receives subconjunctival dexamethasone (0.25 ml) and gentamicin (0.25 ml). Postoperatively, atropine sulphate 1% ophthalmic solution and neomycin sulphate-polymyxin sulphate-dexamethasone ophthalmic ointment are administered twice daily for three weeks.
The animals are evaluated for three weeks and ten weeks. […] All rabbits are evaluated by slitlamp and scored for ocular responses at 1 day and at 1, 2 and 3 weeks. (See FIG. 17, Table 1.) Three and ten weeks after surgery, the animals are anesthetized using a 2 ml intramuscular injection of 11:1 mixture of ketamine hydrochloride and xylazine 20 mg/ml and then killed with a 2 ml intravenous injection of sodium pentobarbital.
The eye globes are enucleated (some of them fixed in neutral buffered formalin 10% solution for 24 hours) and are bisected coronally just anterior to the equator. Gross examination is performed to assess. PCO development. Photographs are taken from behind (Miyake-Apple posterior photographic technique) by using a digital camera fitted to an operating microscope (Leica/Wild MZ-8, Vashaw Scientific, Inc.).
The extent and severity of PCO is scored (see FIG. 17, Table 1) according to methods reported in the literature. The lens capsules are then fixed and evaluated under a microscope (Olumpus, Optical Co. Ltd.) and photographed with a digital camera.

In the case of `NS(=O)(=O)c1cc2c(cc1Cl)NCNS2(=O)=O` [DHCT, dihydrochlorothiazide], the “LEC changes after exposure” value ([1]; 170 or 200 mM NaCl and 200 or 300 μm DHCT, pH ±7.8, five minutes) is reported as “shrink and gradually large gaps form between the cells. The shrinking cells then gradually round up and burst”, the “living LECs after wash” value ([1]; 200 μm DHCT and hyperosmotic ≦200 mM NaCl) is reported as “no living cells can be observed” and the “Soemmering's ring” value [2] is reported as “Most eyes did develop some degree of Soemmering's ring”. The “intraocular inflammatory reaction and deposits” value ([2]; 3 and 10 weeks post-treatment) was “minimal intraocular inflammatory reaction and deposits on the lens capsule surface”, the “development of central PCO (CPCO) and peripheral PCO (PPCO)” value ([2]; three or ten weeks post-treatment) was “No central PCO(CPCO) (the area within the pupillary area) and peripheral PCO (PPCO) (within 6-6.5 mm outside the pupillary area) is found to have developed” and the “lens epithelial cells in pupil area (phase contrast)” value ([2]; three weeks after surgery, no IOLs insertion) was “no remaining lens epithelial cells”.
gramicidin was tested, and the “living LECs after rinsing” value ([1]; 10 or 100 μm gramicidin and PBS) was “no living cells remain” and the “LEC changes after exposure” value ([1]; 10 or 100 μm gramicidin and PBS, five minutes) was “shrink and large gaps gradually form between the cells. The shrinking cells then gradually round up and burst”.
